Results published in patent publication US10563263B2, “Genetic polymorphisms associated with statin response and cardiovascular diseases, methods of detection and uses thereof” (CELERA CORPORATION, priority 2010, dated 2020).

Test system: CHD
Assay: Meta-analysis of CARE and WOSCOPS combined, synergy index, CHD endpoint
Format: in vivo, human
Text: Tables 4-5 provide meta-analyses of CARE and WOSCOPS combined (2nd section of each table) for two endpoints (CHD and CVD) and three genetic models (dominant, recessive, and additive), as well as logistic regression analyses of CARE (3rd section of each table) and WOSCOPS (4th section of each table) individually.
Tables 12 and 17 provide results of meta-analysis of the CARE and WOSCOPS sample sets combined by direct genotyping and by imputing genotypes.
“P” indicates the p-value, and “P(R)” (or “P.R.”) indicates the p-value random effect. Both of these are p-values corresponding to a statistical test of whether the combined synergy index is equal to one but use different assumptions to derive the p-value. “P” is calculated using a fixed effects model, and “P(R)” is calculated using a random effects model.
“OR” indicates the odds ratio (synergy index) calculated from a fixed effects model, and “OR(R)” (or “OR.R.”) indicates the odds ratio (synergy index) calculated from a random effects model.

[1] = SNP rs1321432, allele (A1) A, RECESSIVE, Imputed
[2] = SNP rs1321457, allele (A1) G, RECESSIVE, Imputed
[3] = SNP rs1336382, allele (A1) T, DOMINANT, Imputed
[4] = SNP rs1336383, allele (A1) T, DOMINANT, Imputed
[5] = SNP rs1336407, allele (A1) T, DOMINANT, Imputed
[6] = SNP rs1336409, allele (A1) T, DOMINANT, Imputed
[7] = SNP rs1336596, allele (A1) A, DOMINANT, Imputed
[8] = SNP rs1343560, allele (A1) T, ADDITIVE, Imputed
[9] = SNP rs1343560, allele (A1) T, DOMINANT, Imputed
[10] = SNP rs1361987, allele (A1) T, GENOTYPIC, Imputed
[11] = SNP rs12923993, allele (A1) C, DOMINANT, Imputed
[12] = SNP rs12936964, allele (A1) T, DOMINANT, Imputed
[13] = SNP rs12960663, allele (A1) G, ADDITIVE, Imputed
[14] = SNP rs13038146, allele (A1) C, ADDITIVE, Imputed
[15] = SNP rs13038146, allele (A1) C, GENOTYPIC, Imputed
[16] = SNP rs13134222, allele (A1) A, GENOTYPIC, Imputed
[17] = SNP rs13172910, allele (A1) A, DOMINANT, Imputed
[18] = SNP rs13194907, allele (A1) A, ADDITIVE, Imputed
[19] = SNP rs13194907, allele (A1) A, DOMINANT, Imputed
[20] = SNP rs13195745, allele (A1) A, ADDITIVE, Imputed
[21] = SNP rs13195745, allele (A1) A, DOMINANT, Imputed
[22] = SNP rs13265054, allele (A1) T, DOMINANT, Imputed
[23] = SNP rs13282131, allele (A1) C, GENOTYPIC, Imputed
[24] = SNP rs13353526, allele (A1) C, DOMINANT, Imputed
[25] = rs1003148 allele C RECESSIVE Imputed
[26] = rs1008705 allele C DOMINANT Imputed
[27] = rs1149350 allele A DOMINANT Imputed
[28] = rs1150143 allele G DOMINANT Imputed
[29] = rs1204522 allele C GENOTYPIC Imputed
[30] = rs1204524 allele A GENOTYPIC Imputed
[31] = rs1232298 allele G RECESSIVE Imputed
[32] = rs1247340 allele C DOMINANT Imputed
[33] = rs1247341 allele C DOMINANT Imputed
[34] = rs10046799 allele C ADDITIVE Imputed
[35] = rs10046799 allele C GENOTYPIC Imputed
[36] = rs10051148 allele C DOMINANT Imputed
[37] = rs10054055 allele T DOMINANT Imputed

CC[C@H](C)C(=O)O[C@H]1C[C@H](O)C=C2C=C[C@H](C)[C@H](CC[C@@H](O)C[C@@H](O)CC(=O)O)[C@H]21 [Pravastatin, pravastatin]
OR [1]: 2.1221
OR(R) [1]: 2.1221
OR [2]: 2.0656
OR(R) [2]: 2.0656
OR [3]: 1.6135
OR(R) [3]: 1.6135
OR [4]: 1.6135
OR(R) [4]: 1.6135
OR [5]: 1.6135
OR(R) [5]: 1.6135
OR [6]: 1.6085
OR(R) [6]: 1.6059
OR [7]: 0.5951
OR(R) [7]: 0.5951
OR [8]: 0.5393
OR(R) [8]: 0.5393
OR [9]: 0.5034
OR(R) [9]: 0.5034
OR [10]: 0.4404
OR(R) [10]: 0.4404
OR [11]: 1.4572
OR(R) [11]: 1.4572
OR [12]: 1.6688
OR(R) [12]: 1.6688
OR [13]: 0.6241
OR(R) [13]: 0.6241
OR [14]: 1.3708
OR(R) [14]: 1.3708
OR [15]: 1.9308
OR(R) [15]: 1.9308
OR [16]: 0.3011
OR(R) [16]: 0.3011
OR [17]: 0.6547
OR(R) [17]: 0.6547
OR [18]: 2.303
OR(R) [18]: 2.303
OR [19]: 2.505
OR(R) [19]: 2.505
OR [20]: 2.303
OR(R) [20]: 2.303
OR [21]: 2.505
OR(R) [21]: 2.505
OR [22]: 0.6144
OR(R) [22]: 0.6144
OR [23]: 1.8412
OR(R) [23]: 1.8412
OR [24]: 1.9371
OR(R) [24]: 1.9371
Meta-analysis OR (rs1948 allele A vs G (ref)): 1.66
Meta-analysis OR (rs151806 allele G vs A (ref)): 0.63
Meta-analysis OR (rs205279 allele A vs G (ref)): 1.81
Meta-analysis OR (rs238272 allele A vs G (ref)): 1.45
Meta-analysis OR (rs312929 allele G vs A (ref)): 0.75
Meta-analysis OR (rs316720 allele G vs A (ref)): 0.71
Meta-analysis OR (rs331555 allele A vs C (ref)): 0.74
Meta-analysis OR (rs354342 allele A vs G (ref)): 0.67
Meta-analysis OR (rs453625, allele A1 A (non-ref), A2 G (ref), endpoint/model not given): 0.62
Meta-analysis OR (rs610118 allele G vs A (ref)): 0.49
Meta-analysis OR (rs669684 allele G vs A (ref)): 0.72
Meta-analysis OR (rs842796 allele A vs G (ref)): 1.59
Meta-analysis OR (rs886469 allele G vs A (ref)): 0.64
Meta-analysis OR (rs969356 allele G vs A (ref)): 0.63
OR [25]: 0.5819
OR(R) [25]: 0.5829
OR [26]: 1.4761
OR(R) [26]: 1.4761
Meta-analysis OR (rs1035618 allele A vs C (ref)): 1.42
Meta-analysis OR (rs1076733, allele A1 A (non-ref), A2 G (ref), endpoint/model not given): 0.67
OR [27]: 1.6713
OR(R) [27]: 1.6713
OR [28]: 1.6852
OR(R) [28]: 1.6852
Meta-analysis OR (rs1182878, allele A1 A (non-ref), A2 G (ref), endpoint/model not given): 0.78
OR [29]: 0.4353
OR(R) [29]: 0.4353
OR [30]: 0.4351
OR(R) [30]: 0.4351
OR [31]: 2.0566
OR(R) [31]: 2.0955
OR [32]: 1.6742
OR(R) [32]: 1.6742
OR [33]: 1.684
OR(R) [33]: 1.684
Meta-analysis OR (rs1343563 allele C vs A (ref)): 0.60
Meta-analysis OR (rs1349282 allele A vs G (ref)): 0.55
Meta-analysis OR (rs1382787 allele G vs A (ref)): 1.35
Meta-analysis OR (rs1474396, allele A1 A (non-ref), A2 C (ref), endpoint/model not given): 1.46
Meta-analysis OR (rs1615197 allele G vs A (ref)): 1.80
Meta-analysis OR (rs1884897 allele A vs G (ref)): 2.07
Meta-analysis OR (rs2008165 allele G vs A (ref)): 0.59
Meta-analysis OR (rs2023650 allele A vs G (ref)): 0.71
Meta-analysis OR (rs2060411 allele A vs G (ref)): 1.39
Meta-analysis OR (rs2104506 allele A vs C (ref)): 0.71
Meta-analysis OR (rs2129571, allele A1 A (non-ref), A2 G (ref), endpoint/model not given): 0.53
Meta-analysis OR (rs2145540 allele A vs G (ref)): 0.56
Meta-analysis OR (rs2268650 allele A vs G (ref)): 0.66
Meta-analysis OR (rs2273816 allele A vs G (ref)): 1.61
Meta-analysis OR (rs2290193, allele A1 C (non-ref), A2 A (ref), endpoint/model not given): 0.47
Meta-analysis OR (rs2376764 allele A vs G (ref)): 0.56
Meta-analysis OR (rs2418412 allele G vs A (ref)): 1.94
Meta-analysis OR (rs2483641, allele A1 A (non-ref), A2 G (ref), endpoint/model not given): 0.59
Meta-analysis OR (rs2534752 allele G vs A (ref)): 1.65
Meta-analysis OR (rs2626130 allele G vs A (ref)): 1.32
Meta-analysis OR (rs2695026 allele A vs G (ref)): 0.67
Meta-analysis OR (rs2793086 allele C vs A (ref)): 0.65
Meta-analysis OR (rs2941528 allele A vs G (ref)): 0.67
Meta-analysis OR (rs3000490 allele G vs A (ref)): 1.38
Meta-analysis OR (rs3213616 allele A vs G (ref)): 0.62
Meta-analysis OR (rs3732788 allele G vs A (ref)): 0.51
Meta-analysis OR (rs3798544 allele A vs G (ref)): 1.57
Meta-analysis OR (rs3998860 allele A vs G (ref)): 0.61
Meta-analysis OR (rs4289236 allele A vs G (ref)): 1.41
Meta-analysis OR (rs4611134 allele A vs G (ref)): 1.55
Meta-analysis OR (rs4643388 allele G vs A (ref)): 1.34
Meta-analysis OR (rs4682522 allele C vs A (ref)): 0.55
Meta-analysis OR (rs4830819 allele G vs A (ref)): 0.60
Meta-analysis OR (rs4869033 allele G vs A (ref)): 0.36
Meta-analysis OR (rs4924215 allele A vs G (ref)): 1.65
Meta-analysis OR (rs4986146 allele A vs G (ref)): 0.63
Meta-analysis OR (rs4993917 allele A vs C (ref)): 0.60
Meta-analysis OR (rs5017584 allele A vs G (ref)): 1.74
Meta-analysis OR (rs6075209 allele A vs G (ref)): 0.64
Meta-analysis OR (rs6080603 allele A vs C (ref)): 0.62
Meta-analysis OR (rs6491586 allele G vs A (ref)): 1.65
Meta-analysis OR (rs6505669 allele G vs A (ref)): 1.58
Meta-analysis OR (rs6911817, allele A1 A (non-ref), A2 G (ref), endpoint/model not given): 2.85
Meta-analysis OR (rs7094941, allele A1 G (non-ref), A2 A (ref), endpoint/model not given): 0.74
Meta-analysis OR (rs7179134 allele A vs G (ref)): 3.52
Meta-analysis OR (rs7193741 allele A vs C (ref)): 2.04
Meta-analysis OR (rs7327364 allele A vs G (ref)): 0.68
Meta-analysis OR (rs7497613, allele A1 A (non-ref), A2 G (ref), endpoint/model not given): 0.55
Meta-analysis OR (rs7616936, allele A1 C (non-ref), A2 A (ref), endpoint/model not given): 1.77
Meta-analysis OR (rs7705993 allele G vs A (ref)): 1.48
Meta-analysis OR (rs7767024, allele A1 A (non-ref), A2 G (ref), endpoint/model not given): 1.42
Meta-analysis OR (rs7910196, allele A1 G (non-ref), A2 A (ref), endpoint/model not given): 1.47
Meta-analysis OR (rs8051893 allele A vs G (ref)): 0.67
Meta-analysis OR (rs8109631 allele A vs G (ref)): 1.53
Meta-analysis OR (rs9375683 allele G vs A (ref)): 1.49
Meta-analysis OR (rs9436636 allele A vs G (ref)): 1.35
Meta-analysis OR (rs9446187 allele A vs G (ref)): 1.96
Meta-analysis OR (rs9658127, allele A1 A (non-ref), A2 G (ref), endpoint/model not given): 2.79
OR [34]: 0.724
OR(R) [34]: 0.7134
OR [35]: 0.5342
OR(R) [35]: 0.5221
OR [36]: 0.5783
OR(R) [36]: 0.5783
OR [37]: 0.5791
OR(R) [37]: 0.5791
OR (rs10067895 allele A DOMINANT Imputed): 0.5759
